For series [1] the following is noted: Blau et al. 1993; cited from earlier work.
In a further series the test system is GATA-1 mRNA. Put plainly: Northern hybridization of GATA-1 mRNA in treated K562 cells. Type of series: cell-based, human. The protocol: (§1) Total RNA was prepared by the method of McDonald as described in Sambrook et al., (1989) Molecular Cloning: A Laboratory Manual, 2nd Edition, Cold Spring Harbor Laboratory Press. 10 μg total cellular RNA was electrophoresed through agarose gels containing 3.3% formaldehyde. The electrophoresed RNA was then transferred to nitrocellulose filters by standard methods. Each sample was hybridized to specific probes for gamma globin mRNA, mRNA encoding the erythroid specific transcription factor GATA-1 and 28S ribosomal RNA (which was used for standardization). The gamma globin and GATA-1 probes were cDNA probes, which were labeled with ^32 p by random priming reactions (Promega Biotech Inc.). The 28S ribosomal RNA probe was an oligonucleotide having the sequence 5' […] 3' (SEQ ID NO: 3), which was labeled by 5' end labeling using T4 polynucleotide kinase (New England Biolabs). Nucleotide probes were hybridized to the RNA nitrocellulose filters according to standard techniques. After hybridization, radioactive signals on the nitrocellulose filters were directly quantified using a BioRad GS-250 Molecular Imager. mRNA hybridization intensities were normalized to the amount of 28S ribosomal RNA present for each sample.

In the next series the test system is gamma globin mRNA. Put plainly: Northern hybridization of gamma globin mRNA in treated K562 cells. Type of series: cell-based, human. As to the method: as §1
Series [2] relates to gamma globin-luciferase reporter constructs in K562 cells. Put plainly: BA inducibility of different gamma globin-reporter gene constructs in transiently transfected K562 cells. The format is cell-based, human. An excerpt: The entire human globin gene locus, spanning approximately 150 kilobases, is shown schematically in FIG. 1. Depicted are the different globin structural genes and cis-active regulatory elements (e.g., promoters and enhancers). To construct gamma globin reporter gene plasmids, nucleic acid fragments comprising nucleotide sequences normally flanking (i.e., at either the 5' or 3' end of) the gamma globin gene were obtained and subcloned into a plasmid encoding a reporter gene. The human gamma globin 5' promoter fragment consisted of nucleotides -1200 to +30, relative to the start site of transcription (nucleotide numbers 38205 to 39435 of the human gamma globin gene in the GENEMBL database, accession number J00179). The promoter fragment was obtained from human genomic DNA by polymerase chain reaction (PCR) amplification using oligonucleotide primers of the sequences: […]
These constructs are illustrated schematically in FIG. 2.
In a first series of experiments, K562 cells transiently transfected with the different gamma globin-reporter genes described in Example 1 were treated with butyric acid (BA). After treatment, the level of reporter gene activity (i.e., luciferase activity) in the treated cells was compared to determine the BA-inducibility of the different reporter gene constructs. The results are shown graphically in FIG. 2, which illustrates the fold induction of luciferase activity by BA relative to untreated cells. […] All other constructs tested (including gammaSV40, beta3'PE, HS2/3gamma3'PE and gamma) were at least 2 fold less responsive to BA treatment.
To test whether the increased sensitivity of the gamma globin promoter to BA was due to a specific property of the globin 3' Proximal Enhancer or if this was a property of transcriptional enhancers in general, two copies of the 72 bp repeat of the SV40 enhancer (isolated by PCR from the simian virus 40 genome) were substituted for the 3' Proximal Enhancer in the context of the gamma globin promoter (construct gammaSV40). […] This may be due to the unnatural proximity of these enhancer sequences to the gamma globin promoter in this construct. Normally, these sequence reside over 30 kB upstream of the promoter and one function of BA in vivo may be to promote interaction between the chromosomal LCR sequences and the gamma globin promoter. Artificially positioning the LCR components near the gamma globin promoter may have in fact complemented the effect of BA. Thus, empirically, it appears that maintaining the cis-active elements of the gamma globin locus in their natural context is important for developing the most sensitive reporter gene assay system for detecting gone induction by short chain fatty acids such as BA.
Background: Reporter assays use an easily measured gene product as a stand-in for the process of interest.

Series [3] relates to gamma globin promoter deletion-luciferase constructs in K562 cells. Put plainly: BA inducibility of gamma globin promoter deletion constructs. Type of series: cell-based, human. Conditions: 5 mM BA, 24 hours. An excerpt: Luciferase reporter gene constructs containing serial deletions in the 5' end of the gamma globin promoter were made by cloning truncated promoter DNA fragments upstream (i.e., 5') of the luciferase gene in pGL2. The gamma globin 3' Proximal Enhancer element (3'PE) was cloned downstream (i.e., 3') of the luciferase reporter gene in these constructs. Truncated gamma globin promoter DNA fragments were generated by PCR using as the upstream primer oligonucleotides having the sequences:
To create a construct with 5' terminus at position -140, the -577 reporter gene construct was digested with NcoI and KpnI, the fragment containing the deleted promoter and reporter gene (i.e., the large restriction fragment) was treated with T4 DNA polymerase to fill-in the restriction sites and the fragment was treated with T4 DNA ligase to religate the construct.
To determine the inducibility of each deletion construct by butyric acid, the constructs were introduced into K562 cells by electropotation as described above. Forty-eight hours after transfection, the cells were treated with 5 mMBA. Luciferase activity was measured 24 hours later. The inducibility of the deletion constructs is illustrated in FIGS. 16 and 17.

For series [4], the system named is neoplastic and non-neoplastic cells. The conditions noted are these: Newmark et al. 1994; cited from earlier work.
Where [5] appears, read: normalized to 28S ribosomal RNA, K562 cells, 5 mM, 96 hours.

`CCCC(=O)O` [BA, butyric acid]: the “toxicity of high dosages” value in series [1] is recorded as “associated with toxicity, in particular neurologic toxicity”. In addition, the fold induction at 5000 µM with GATA-1 mRNA (Homo sapiens, K562, 96 h, read-out: Fold Induction, GATA-1 RNA) was found to be 1; in the series on gamma globin mRNA (Homo sapiens, K562, 96 h, read-out: Fold Induction, gamma globin RNA), 1.3. For the same compound, the “Raw Value, GATA-1 RNA” value in the series with GATA-1 mRNA (K562 cells, 5 mM, 96 hours) is 2.23 × 10^5. The “Normalized Value, GATA-1 RNA” value in the series with GATA-1 mRNA (setting [5]) is on record as 5.8 × 10^4. The “Raw Value, gamma globin RNA” value in the series on gamma globin mRNA (K562 cells, 5 mM, 96 hours) is 3.58 × 10^6. Moreover, the “Normalized Value, gamma globin RNA” value in the series on gamma globin mRNA (setting [5]) is given as 9.4 × 10^5. In series [2] (HS2/3gamma3'PE vs gamma3'PE), the “effect of LCR sequences on BA sensitivity of gamma3'PE construct” value is recorded as “reduce the sensitivity of the gamma3'PE construct to BA”. The “BA induction of beta3'PE construct” value in series [2] (beta globin promoter with 3'Proximal Enhancer) is “not inducible”. In series [2] (gamma3'PE, fold induction relative to untreated cells), the “BA responsiveness of gamma3'PE construct” value is reported as “most responsive to BA”. The “BA induction of gamma construct” value in series [2] (gamma globin promoter without 3' Proximal Enhancer) is given as “inducible, albeit to a lesser extent than when in the context of the 3' Proximal Enhancer”. Besides, the “SV40 enhancer effect on BA responsiveness of gamma globin promoter” value in series [2] (gammaSV40) was “not effective in augmenting the responsiveness of the gamma globin promoter to BA”. Also, the “fold lower BA responsiveness of other constructs than gamma3'PE” value in series [2] (gammaSV40, beta3'PE, HS2/3gamma3'PE and gamma, transient transfection) is “at least 2 fold”. In series [2] (luciferase gene only or fused to 3'Proximal Enhancer), the “BA induction of promoterless constructs” value is reported as “not induced by BA”. Moreover, the “BA inducibility on promoter deletion to -108” value in series [3] is given as “markedly reduced the BA inducibility of the construct”. For the same compound, in series [3], the “BA responsiveness on promoter deletion from -1260 to -140” value was “did not significantly alter the responsiveness of the reporter construct to BA”. In addition, in series [4], the induction of differentiation entry is “induce differentiation of neoplastic and non-neoplastic cells”.

These data come from patent publication US5700640A, “Inducers of gamma globin gene expression and screening assays therefor” (priority 1994, dated 1997).
